Values quoted from earlier work in patent US10975131B2, “Factor H-Fc immunotheraphy” (priority 2015, dated 2021).
Like-named read-outs stand apart in the source and are kept apart here.

Test system: N. gonorrhoeae strains

CO/N=C(\C(=O)N[C@@H]1C(=O)N2C(C(=O)O)=C(CSc3nc(=O)c(=O)[nH]n3C)CS[C@H]12)c1csc(N)n1 [Ceftriaxone, ceftriaxone]
Ceftriaxone MIC (strain CTXr (Spain), resistant): 2 (resistant) ug/ml
Ceftriaxone MIC (strain FA1090): 0.004 µg/mL
Ceftriaxone MIC (strain H041, resistant): 2-4 (resistant) ug/ml
Ceftriaxone MIC (strain MS11): 0.032 µg/mL
Ceftriaxone MIC (strain NJ-1, agar dilution): 0.023 µg/mL
Ceftriaxone MIC (strain NJ-11, agar dilution): 0.047 µg/mL
Ceftriaxone MIC (strain NJ-15, agar dilution): 0.047 µg/mL
Ceftriaxone MIC (strain NJ-19, agar dilution): 0.032 µg/mL
Ceftriaxone MIC (strain NJ-26, agar dilution): 0.032 µg/mL
Ceftriaxone MIC (strain NJ-27, agar dilution): 0.064 µg/mL
Ceftriaxone MIC (strain NJ-36, agar dilution): 0.032 µg/mL
Ceftriaxone MIC (strain NJ-44, agar dilution, elevated MIC to CRO): 0.125 (elevated ug/ml
Ceftriaxone MIC (strain NJ-48, agar dilution, elevated MIC to CRO): 0.125 (elevated ug/ml
Ceftriaxone MIC (strain NJ-60, agar dilution, resistant): 0.380 (resistant) ug/ml
